We go through two compounds from patent US20140271499A1, “ARTICLE AND METHOD OF INITIATING BONE REGROWTH AND RESTORATION OF GUM RECESSION WITH LOCALIZED SUBGINGIVAL DELIVERY OF MEDICATIONS” (priority 2013, published 2014).

“Also recorded” adds a separate entry of the source.

One assay has as its system alveolar bone. Put plainly: Clinical cases: topical tray delivery to the periodontal pocket, alveolar bone and gingival tissue regrowth. Type of assay: in vivo, patient. An excerpt:
(§1) One exemplary method will now be described. An initial examination determines the conditions of the patient's periodontal disease. Models of the patient along with their periodontal probing is forwarded to a laboratory registered to make the custom formed medical device (Perio Tray), which is capable of delivering about 1.7% hydrogen peroxide gel (Perio Gel) to the diseased tissue. […] The depth of the biofilm and the tissue damage that exist determines the frequency and duration of usage. Patients with severe tissue damage (6 mm or greater) use the Perio Tray about 4 times a day. Patients with moderate damage (3 mm to 6 mm) use the Perio Tray about 3 times a day and patients maintain their health using the trays once or twice a day for about 15 minutes.
After the photographs of FIGS. 12A, 14A, 16A, and 18A were taken in 2004, the patient began a treatment as described above that included regular direct/topical medication delivery to the a to the gingival sulcus and/or periodontal pocket 37 in 2004 delivering doxycycline subgingival and interproximal with the medicament delivery tray.
The fact teeth appear longer as we age is supported in the literature. This is explained as a greater action of osteoclasts as compared to the cellular activity of osteoblasts with a resultant decrease in alveolar bone 40B around the patient's teeth 10 with an accompanying loss of gingival tissue 24B appearing as receding gum tissue 24B and the exposure of a greater root surface making the teeth 10 appear longer.

The next assay concerns osteoclasts. Nature of the assay: Initial study of osteoclastic and osteoblastic activity on exposure to doxycycline. Type of assay: cell-based. Conditions: exposed to doxycycline. An excerpt:
Doxycycline bonds to internal and external calcium ions causing osteoclasts to detach from the bone, thus decreasing or stopping bone loss. […] The stoppage of bone loss and the maintenance of bone regeneration results in a net gain of new bone over time as long as the doxycycline is continually delivered to the bone/tissue interface with the currently disclosed method.

Another assay deals with oral biofilm. Nature of the assay: Penetration and eradication of oral biofilm by hydrogen peroxide gel.
Text: as §1

Where [1] appears, read: oxygen delivered directly to the tissues.

As for `C[C@H]1c2cccc(O)c2C(=O)C2=C(O)[C@]3(O)C(=O)C(C(N)=O)=C(O)[C@@H](N(C)C)[C@@H]3[C@@H](O)[C@@H]21` [doxycycline], the tooth mobility entry with alveolar bone (case studies, direct delivery to the periodontal pocket) was “decrease”. Besides, the “formation of new osteoclasts by precursor cells” value in the assay on alveolar bone (clinic tests) was “completely stopped; also recorded: completely abrogates”. Also, the “bone loss and bone regeneration” value in the assay on alveolar bone (delivery to gingival sulcus or periodontal pocket) was “stops bone loss and augments bone regeneration”. Besides, in the assay on alveolar bone (lengthy clinic tests), the “attachment of osteoclasts to bone” value was “inhibit” and the “cellular activity of osteoblasts” value was “maintain or increase”. Moreover, the “alveolar bone (radiographs)” value in the assay with alveolar bone (patient treated 1976 to 2012, hydrogen peroxide and topically applied doxycycline) is “regrown and increased”. Besides, in the assay with osteoclasts, the “formation of new osteoclasts from osteoclastic precursor cells” value was “completely abrogated”, the osteoblastic activity result is “augmentation” and the osteoclastic activity entry was “decrease”.

As for `OO` [hydrogen peroxide], the “kill of biofilm bacteria” value in the assay with oral biofilm is 99.999%. Besides, the “eradication of biofilm bacteria” value with biofilm bacteria (in 14 to 17 days) is recorded as 99.98%. Moreover, in the assay on biofilm bacteria (setting [1]), the “time to bring to an end the facultative anaerobes” value worked out at 7 days and the “time to kill the obligate anaerobes” value was 2 days.
